{
  "source": "patent US20250154240A1",
  "about": "“ANTI-HUMAN CXCL1 ANTIBODY” (CHIOME BIOSCIENCE INC., priority 2022, published 2025)",
  "key": {"CXCR2-expressing cells [1]": {"tested_on": "CXCR2-expressing cells", "assay": "In vivo migration inhibitory activity test on CXCR2-expressing cells, OCUM-12 orthotopic transplantation (prevention model)", "parameters": "species or system mouse", "conditions": "navarixin orally 100 mg/kg/day, once a day for 5 consecutive days followed by 2-day withdrawal", "excerpt": "The stomachs after measurement of the tumor size in [3-1] above were excised and fixed overnight at room temperature with a 10% neutral buffered formalin solution (Wako Pure Chemical Industries, Ltd., Japan), followed by replacement with PBS. Then, paraffin embedding and section preparation were outsourced to Applied Medical Research Laboratory, Japan. The prepared gastric tumor sections were immunohistologically stained with an anti-CXCR2 antibody to evaluate in vivo CXCR2 cell migration inhibitory activity. The sections were deparaffinized and rehydrated, and then treated to inactivate endogenous peroxidase. After antigen activation treatment, the sections were blocked with PBS containing 2% skimmed milk and 0.1% Tween-20, and reacted overnight at 4° C. with an anti-CXCR2 antibody (Biorbyt) as a primary antibody, which had been diluted to 0.3 μg/mL with the blocking solution. […]\nNavarixin is among small molecular compounds that act on CXCR2 and inhibit CXCL1-CXCR2 signaling. […] Then, using a model with OCUM-12 orthotopic transplantation, the migration inhibition of CXCR2-expressing cells and antitumor activity were evaluated in vivo for Navarixin. […]\nThe dose-response relationship between antibody dose and in vivo antitumor activity or CXCR2 migration inhibitory activity was evaluated in a xenograft prevention model with OCUM-12 orthotopic transplantation. […]"}, "[2]": {"tested_on": "OCUM-12 gastric cancer cell line", "assay": "Antitumor activity test, model with OCUM-12 orthotopic transplantation (prevention model)", "format": "in vivo, mouse", "conditions": "orally 100 mg/kg/day, once a day for 5 consecutive days followed by 2-day withdrawal", "method": "A model with OCUM-12 orthotopic transplantation was prepared to evaluate the above 4 types of candidate antibodies for their in vivo CXCR2 migration inhibitory activity and antitumor activity in a xenograft model with OCUM-12 orthotopic transplantation.\nFor use as mice, female nude mice (BALB/cAJcl-nu/nu) at 5 to 6 weeks of age were purchased from CLEA Japan, Inc., Japan. For use as human cancer cells, a gastric cancer cell line, OCUM-12, was provided by University Public Corporation Osaka, Japan. […]\nOn the day following the above transplantation, the mice were randomized into groups (8 or 6 mice per group) and intraperitoneally administered with PBS as a control and with 4 types of candidate antibodies (1A-7H10, 4A-2F7, 5A-5E11 and 028-8-12) and 3 types of non-candidate antibodies (1A-3C6, 1A-2H3 and 4A-5B11) at a dose of 20 mg/kg. […] After 3 weeks had passed from the transplantation, the mice were sacrificed, and the short- and long-axis diameters of tumors formed in their gastric walls were each measured with a caliper. The tumor size was calculated according to the following: 1/2 short-axis diameter (mm)×1/2 long-axis diameter (mm)×3.14. […]\nThe humanized antibodies were evaluated for their in vivo antitumor activity and CXCR2 migration inhibitory activity in a xenograft model with OCUM-12 orthotopic transplantation. […]"}, "CXCR2-expressing cells [3]": {"tested_on": "CXCR2-expressing cells", "conditions": "known; cited from earlier work"}},
  "data": [
    {"smiles": "CC[C@@H](Nc1c(Nc2cccc(C(=O)N(C)C)c2O)c(=O)c1=O)c1ccc(C)o1", "note": "[Navarixin, reference compound]", "values": [
      {"measurement": "Migration of CXCR2-expressing cells in vivo", "setting": "CXCR2-expressing cells [1]", "value": "significantly inhibit the migration of CXCR2-expressing cells"},
      {"measurement": "Antitumor activity", "setting": "[2]", "value": "no antitumor activity was observed"},
      {"measurement": "Migration of CXCR2-expressing cells in vitro", "setting": "CXCR2-expressing cells [3]", "value": "known to inhibit the migration of CXCR2-expressing cells in vitro"}
    ]}
  ]
}
